Results: PMC6459484, “Synthetic surfactin analogues have improved anti-PEDV properties” (PLoS ONE, 2019)
Converted amounts (≈) assume the structure as drawn. Square brackets hold non-standard residues; d marks the D form. Peptide text beside a SMILES is read from it. * marks the point of attachment. Palmitoyl = CCCCCCCCCCCCCCCC(=O)*

Columns and labels:
PEDV [1] = assay: Time of addition assay (viral N protein by western blot, viral RNA by qRT-PCR); format: cell-based, Porcine epidemic diarrhea virus; conditions: Vero cells, 1000 PFU PEDV, harvested 12 hpi, SLP5 50 μg/ml, surfactin 20 μg/ml; for PEDV replication (nucleic acid and protein levels), reagent present throughout the experiment (treatment group 2) or at any stage: DEPE 5 μg/ml, 3 independent experiments; for PEDV replication, treatment group 5: same as group 2 (little replication)
Method: Time of addition assay was performed according to the procedures described, with modifications. Confluent Vero cells in 12-well plates were infected with 1000 PFU of PEDV and incubated for 1 hr at 4 °C to synchronize infection. The inoculum was removed and 1 mL of 37 °C DMEM was added to each well, cells were then placed at 37 °C in a humidified incubator. At the indicated time points, SLP5, surfactin, or dielaidoyl-phosphatidylethanolamine (DEPE, AvantiPolarLipids, Alabaster, AL) was added dropwise to cells or virus to a final concentration of 50 μg/ml, 20 μg/ml, or 5 μg/ml and incubated a further 12 hours at 37 °C. Viral nucleic acid and protein levels in the cells were measured by qRT-PCR and western-blot respectively. The data shown is representative of 3 independent experiments.
Total RNA was extracted from cells using TRIzol Reagent (Invitrogen) according to the manufacturer’s instructions. cDNA was generated by reverse transcription using HiScript TM QRT SuperMix for qPCR (Vazyme) according to the manufacturer’s instructions. PEDV nucleic acid levels were assessed by measuring the viral nucleoprotein (N) using qRT-PCR with the TaKaRa SYBR Green qPCR Kit (TaKaRa). Primer sequences were as follows: PEDV-N-F (sense), 5’-[…]-3’; PEDV-N-R (antisense), 5’-[…]-3’; C-sabaeus-GAPDH-F, 5’-[…]-3’; C-sabaeus-GAPDH-R, 5’-[…]-3’. Gene level was calculated using the comparative Ct method and normalized to the endogenous levels of GAPDH.
Boiled cell lysates were subjected to SDS-PAGE then transferred to PVDF membrane (Roche, Basel, Switzerland) using a semi-dry transfer apparatus (GE, Little Chalfont, Buckinghamshire, UK). Membranes were blocked in 5% non-fat milk in TBS containing 0.01% Tween-20 (TBST) then incubated overnight at 4 °C with anti-PEDV N-protein monoclonal antibody (Median Diagnostics, South Korea) diluted in TBST with 1% BSA. Membranes were washed 30 min in TBST followed by incubation for 1 h at RT with 1:5000 HRP goat anti-mouse IgG antibody (ABGENT, San Diego, CA, USA) then thrice washed for 15 min in TBST. Membranes were incubated with ECL reagent (Thermo, Waltham, MA, USA) and imaged using a ChemiDoc™ system (Bio-Rad, Hercules, CA, USA).
Since SLP5 was the most promising surfactin analogue, we chose it for further study. Time of addition assays were performed to determine whether the SLP5 exerts its anti-PEDV effect at the same stage during infection as surfactin. Since surfactin acts directly on virions, the experiment was designed to examine events early in the infection process. Fig 6A summarizes the experimental plan and the eight treatments tested. Briefly, SLP5, surfactin, or DEPE was added to virus alone, cells alone, or to cells and virus together prior to infection, during virus adsorption, during virus invasion (1 h post infection at 37 °C), or during replication (1–12 hpi). Samples were harvested 12 hours after infection, and analyzed to measure cellular levels of viral protein (Fig 6B and 6C) and viral RNA (Fig 6D). […] Other antiviral mechanisms of SLP5 and surfactin cannot be ruled out since PEDV replication is inhibited to different degrees in some of the other treatment groups.
Fig 6 Time-of-addition experiments. (A) Vero cells were treated with SLP5, surfactin, or DEPE at different time points before, during, and after infection. […] (B) The PEDV nucleoprotein was detected by Western-blot, and (C) quantitated by band intensity relative to the internal control, GAPDH. (D) The PEDV genome was detected by qRT-PCR. […]

[2] = HPLC retention time as measure of hydrophobicity; format: physicochemical; conditions: used as indicator of total hydrophobicity, SLP1>SLP2>SLP3
From the text: The cationic properties of synthetic lipopeptides are thought to be related to their antibacterial and hemolytic activities. […] Cyclic lipopeptides are reported to more readily lyse bacterial membranes than linear or branched lipopeptides. […] It has also been reported that the total hydrophobicity of synthetic lipopeptides is inversely related to hemolytic activity, although this conclusion was from data on only 3 related samples [27]. […] The relative hydrophobicity of SLP1, 2, and 3 is SLP1>SLP2>SLP3, as indicated by their HPLC retention times (17.6, 16.7, and 14.5 min, respectively).

[3] = Critical micelle concentration by surface tension (ring method); format: physicochemical; conditions: samples stood 30 min at 22 °C, intersection of two linear regression lines
Method: Surface tensions were measured using the ring method. Samples were freshly prepared in a testing flask and allowed to stand for 30 minutes at 22 °C. Surface tension measurements were made using a surface tensiometer (HLD-LST-II, HENLIDA Co., Ltd, China). Linear regressions of the drop and the flat area were performed separately for the surface tension-concentration curve. The concentration at the intersection of the two lines is the critical micelle concentration (CMC).
The CMC was calculated by measuring the surface tension of each SLP over a range of concentrations. […] Linear regressions were performed independently using the data on the descending part of the curve below the CMC and the equilibrium part above the CMC. The intersection of the linear regression lines corresponds to the CMC (Table 3).
Fig 4 Critical micelle concentrations of the SLPs. CMCs were determined for SDS, surfactin, and SLPs by surface tension. The intersection of the two linear regression lines corresponds to the CMC value, (shown by the dotted lines).

PEDV CV777 = assay: Plaque reduction assay (anti-PEDV activity); format: cell-based, Porcine epidemic diarrhea virus; conditions: for Anti-PEDV potency compared with surfactin: plaque reduction assay, result in words
Method: Cercopithecus aethiops kidney epithelial cells (Vero, ATCC, CCL-81) were cultured in high glucose DMEM (Gibco, US), supplemented with 10% fetal bovine serum (FBS, GIBCO), at 37 °C in a 5% CO2 humidified atmosphere. Cells were routinely seeded at a density of 2×10^5 /mL in plastic tissue culture flasks (25 cm^2 flasks, Corning, USA) and passaged every 3–4 days. PEDV CV777 was provided by the Jiangsu Academy of Agricultural Sciences (JAAS).
Vero cells were seeded at 2 × 10^5 cells/well in 24-well tissue culture plates and incubated 18–24 h at 37 °C until approximately 95% confluency was reached. 100 PFU of PEDV mixed with an equal volume of SLP in DMEM or DMEM alone were incubated 10 minutes at 37 °C, then added into the wells of the Vero cells and incubated 30 minutes at 4 °C. Cells were washed 3 times with DMEM then overlaid with DMEM/1% agar and incubated 72 hours at 37 °C. The cells were fixed with 4% formaldehyde, then stained with 0.1% crystal violet after the agar overlay was removed. The data are representative of 3 biological replicates and each plaque assay was performed in triplicate and values are expressed as means ± the standard deviation. Curve fitting and EC50 were calculated with GraphPad Prism 6 using the log[inhibitor] vs. response equation.
The SLPs were tested for anti-PEDV activity using a plaque reduction assay. Serial dilutions of SLPs were incubated with an equal volume of PEDV then aliquoted onto precooled cells in 12-well plates. After the virus has adsorbed to the cells at 4 °C, SLPs were washed away. The adsorbed virus particles were then counted by plaque forming assays (Fig 2A). The results were fitted to a sigmoid-curve and plotted Fig 2B. All SLPs have potent anti-PEDV effects above 50 μg/ml, but differences in their anti-PEDV effect.
Fig 2 Anti-PEDV activities of lipopeptides. (A) PEDV was incubated with series concentrations of SLPs for 10 minutes at 37 °C. After washing cells of unadsorbed virus, the remaining infectious particles was detected by plaque assay. (B) Anti-PEDV activity (% remaining PFU) plotted as a function of lipopeptide concentration. The results of three independent experiments are shown as means ± standard deviation. 100% represents plaque counts in the control (no lipopeptide) sample.

porcine RBCs = format: cell-based; conditions: for CC50 (50% cytotoxicity concentration, hemolysis): red cells of porcine, 1 h
Method: Hemolytic activity was measured according to the methods described in Jingdan, with some modifications. Briefly, serial dilutions of SLPs were added to 200 uL of a 1% suspension of porcine RBCs in PBS, followed by incubation for 1 h at 37 °C. Cells were centrifuged at 1000 g for 10 min, then 100 uL of each supernatant was transferred to wells of a 96-well plate. The optical density at 540 nm was measured using a microplate reader (Infinite 200 PRO, Tecan Group Ltd., Switzerland) and % hemolysis was calculated using the formula: Hemolysis(%)=ODS-ODB/ODP-ODB×100% where ODS, ODB, and ODP represent the optical density of the SLP-treated samples, negative control and positive control, respectively. 1% Triton X-100 was used for the positive control. Each sample was run in triplicate.
Fig 3 Hemolytic activity of lipopeptides. (A) The indicated concentration of SLPs were added to a 1% porcine RBC suspension in PBS, followed by incubation for 1 h at 37 °C and centrifugation. Pictures were taken after collecting a portion of the supernatant for quantification of hemolysis. (B) Hemolytic curve. Hemolysis (measured at OD540) is shown as a function of SLP concentration. 100% represents the OD obtained using 0.1% Triton X-100-treated red blood cells.

PEDV [4] = conditions: cited from earlier work
From the text: In summary, we synthesized 10 surfactin analogues and characterized them to identify those with enhanced anti-viral properties. […] SLP5 is therefore a more promising synthetic surfactin analogue. Compared with surfactin, the structure of SLP5 is distinguished by its linear lipopeptide and the additional carboxyl grou ...

[5] = 100 PFU PEDV pre-incubated with lipopeptide 10 min at 37 °C, adsorbed to Vero cells 30 min at 4 °C, washed, agar overlay 72 h, 3 biological replicates each in triplicate, mean ± SD, log[inhibitor] vs. response fit

Compound | PEDV replication (nucleic acid and protein levels), reagent present throughout the experiment (treatment group 2) or at any stage (PEDV [1]) | HPLC retention time (relative hydrophobicity) [2] | CMC [3] | EC50 (PEDV CV777; 72 h) | Hemolytic activity, result in words (porcine RBCs) | CC50 (50% cytotoxicity concentration, hemolysis) (porcine RBCs) | Anti-PEDV potency compared with surfactin (PEDV CV777) | EC50 (PEDV CV777; [5]) | PEDV replication, treatment group 5 (PEDV [1]) | Protection of piglets from PEDV challenge (PEDV [4])
CCCCCCCC/C=C/CCCCCCCC(=O)OC[C@H](COP(=O)(O)OCCN)OC(=O)CCCCCCC/C=C/CCCCCCCC [DEPE, dielaidoyl-phosphatidylethanolamine] | did not affect PEDV replication at any stage |  |  |  |  |  |  |  |  | 
CCCCCCCCCCCCCCCC(=O)N[C@@H](CCC(=O)O)C(=O)N[C@H](C(=O)N[C@H](CC(C)C)C(=O)N[C@@H](C)C(=O)N[C@@H](CC(=O)O)C(=O)N[C@H](CC(C)C)C(=O)N[C@H](C(N)=O)C(C)C)C(C)C [SLP1] (Palmitoyl-EV[dL]AD[dL]V-NH2) |  | 17.6 min | 5.7 µg/mL | 8.0 ± 0.3 µg/mL (≈ 8.04 µM) | slightly weaker than that of surfactin | 52.6 ± 2.3 µg/mL (≈ 52.8 µM) |  |  |  | 
CCCCCCCCCCCCCCCC(=O)N[C@@H](CCC(=O)O)C(=O)N[C@H](C(=O)N[C@H](CC(C)C)C(=O)N[C@@H](CC(=O)O)C(=O)N[C@H](CC(C)C)C(=O)N[C@H](C(N)=O)C(C)C)C(C)C [SLP2] (Palmitoyl-EV[dL]D[dL]V-NH2) |  | 16.7 min | 4.2 µg/mL | 5.3 ± 0.5 µg/mL (≈ 5.73 µM) |  | 33.0 ± 1.6 µg/mL (≈ 35.7 µM) | higher potency than surfactin |  |  | 
CCCCCCCCCCCCCCCC(=O)N[C@@H](CCC(=O)O)C(=O)N[C@H](C(=O)N[C@H](CC(C)C)C(=O)N[C@@H](CC(=O)O)C(=O)N[C@H](CC(C)C)C(N)=O)C(C)C [SLP3] (Palmitoyl-EV[dL]D[dL]-NH2) |  | 14.5 min | 6.4 µg/mL |  |  | 69.7 ± 2.6 µg/mL (≈ 84.5 µM) |  | 16.9 ± 1.6 µg/mL (≈ 20.5 µM) |  | 
CCCCCCCCCCCCCCCC(=O)N[C@@H](CCC(=O)O)C(=O)N[C@H](C(=O)N[C@H](CC(C)C)C(=O)N[C@@H](CC(=O)O)C(=O)N[C@H](CC(C)C)C(=O)O)C(C)C [SLP5] (Palmitoyl-EV[dL]D[dL]-OH) | little PEDV replication occurs |  | 15.0 µg/mL | 16.5 ± 0.6 µg/mL (≈ 20 µM) |  | 847.2 ± 124.9 µg/mL (≈ 1030 µM) | equaled |  | act directly on the virus | 
Surfactin | little PEDV replication occurs |  | 12.1 µg/mL |  |  |  |  | 11.4 ± 0.7 µg/mL | act directly on the virus | protect piglets from PEDV challenge
